For five molecules, POD vs vehicle results are on record in the supplement of paper PMC11368000.

Bounds are passed on as bounds.

Settings in all cases: exposure time: 90 min
The subject of test [1] is 1083 (donor line of iPSC-derived cardiomyocytes). Nature of the test: POD (EC05) for decrease in beat frequency (negative chronotrope) vs vehicle; higher = less potent (higher point of departure). Here is the method: (§1)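 Human iPSC-derived cardiomyocytes from 16 donors were exposed for 90 min at 37 °C to each PFAS at 0.1, 1, 10 and 100 µM in 0.5% DMSO, 384-well plates. Kinetic Ca2+ flux (FLIPR) and Hoechst nuclei counts were normalised to vehicle wells and fitted with a hierarchical Bayesian Hill model to give donor-specific PODs: EC05 for beat-rate increase or decrease and for decay-to-rise ratio increase (QT proxy), EC95 for peak-frequency loss (asystole), EC10 for total cell number loss. 0.03 µM is the lower bound.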

In test [2] the test system is 11235 (donor line of iPSC-derived cardiomyocytes). The description is as above. Here is the method:
as §1

Test [3] has as its system 1309 (donor line of iPSC-derived cardiomyocytes). The description is as above. Here is the method:
as §1

Test [4] relates to 1368 (donor line of iPSC-derived cardiomyocytes). The description is as above. How it is done:
as §1

The test system of test [5] is 1392 (donor line of iPSC-derived cardiomyocytes). The test is described as above. How it is done: as §1
The subject of test [6] is 1434 (donor line of iPSC-derived cardiomyocytes). The description is as above. How it is done:
as §1

Test [7] has as its system 1516 (donor line of iPSC-derived cardiomyocytes). Described as above. Here is the method:
as §1

Test [8] has as its system 1518 (donor line of iPSC-derived cardiomyocytes). The test is described as above. Here is the method:
as §1

The test system of test [9] is 1531 (donor line of iPSC-derived cardiomyocytes). The description is as above. Here is the method: as §1
For test [10], the system named is 1535 (donor line of iPSC-derived cardiomyocytes). The test is described as above. How it is done: as §1
For test [11], the system named is 1565 (donor line of iPSC-derived cardiomyocytes). Described as above. How it is done: as §1
Test [12] relates to 20032 (donor line of iPSC-derived cardiomyocytes). The test is described as above. How it is done: as §1
The test system of test [13] is 20084 (donor line of iPSC-derived cardiomyocytes). The description is as above. How it is done: as §1
Test [14] has as its system 30145 (donor line of iPSC-derived cardiomyocytes). The description is as above. How it is done: as §1
Test [15] has as its system 30171 (donor line of iPSC-derived cardiomyocytes). The test is described as above. How it is done:
as §1

Test [16] has as its system 11235. Description: POD (EC05) for increase in Ca2+ transient decay-to-rise ratio (QT prolongation) vs vehicle; higher = less potent (higher point of departure). An outline of the steps:
(§2)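 For each of 16 donors, iPSC-derived human cardiomyocytes were cultured 14 days in gelatin-coated 384-well plates and given a fluorescent Ca2+ dye for 2 h. Exposure lasted 90 min at 37 °C at 0.1, 1, 10 and 100 µM final, with 0.5% DMSO, and a FLIPR Tetra captured Ca2+ flux at 8 frames/s over 100 s both before and afterwards. Points of departure per donor were estimated by hierarchical Bayesian Hill fits to vehicle-normalised beat frequency, decay-to-rise ratio or peak frequency, using thresholds of 5% change, or 95% loss for peak frequency.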

Test [17] has as its system 1368. The test is described as above. The method in brief:
as §2

The subject of test [18] is 1434. The test is described as above. The method in brief:
as §2

Test [19] relates to 1565. The description is as above. An outline of the steps:
as §2

Test [20] has as its system 30171. The description is as above. An outline of the steps:
as §2

Consider `NC(=O)C(F)(F)C(F)(F)C(F)(F)C(F)(F)C(F)(F)C(F)(F)C(F)(F)F` [Perfluorooctanamide], for which the POD vs vehicle in test [1], in test [2], in [3], in test [4], in test [5] and in test [6] was above 100 µM throughout. The POD vs vehicle in [7], in test [8], in test [9], in test [10], in [11] and in test [12] was above 100 µM in each case. Besides, the POD vs vehicle in [13], in test [14], in test [15], in test [16], in [17] and in test [18] was above 100 µM in each case. For the same molecule, the POD vs vehicle in [19] and in [20] was above 100 µM each time.
Turning to `O=C(O)C=C(C(F)(F)F)C(F)(F)F` [3,3-Bis(trifluoromethyl)-2-propenoic_acid], the POD vs vehicle in [1], in test [2], in test [3], in test [4], in test [5] and in [6] was above 100 µM each time. Besides, the POD vs vehicle in test [7], in test [8], in test [9], in test [10], in [11] and in [12] was above 100 µM each time. The POD vs vehicle in test [13], in test [14], in test [15], in test [16], in test [17] and in test [18] was above 100 µM throughout. The POD vs vehicle in test [19] and in test [20] was above 100 µM throughout.
`NC(O)(C(F)(F)F)C(F)(F)F` [2-Aminohexafluoropropan-2-ol]: the POD vs vehicle was above 100 µM in test [1]; 7.51 µM in test [2]; above 100 µM in [3]; above 100 µM in test [4]; above 100 µM in test [5]; 85.7 µM in [6]. Besides, the POD vs vehicle in test [7] is 22.6 µM; in [8], above 100 µM; in [9] it was above 100 µM; in [10], 83.8 µM; in test [11] it was above 100 µM; in test [12], 80.9 µM. Further, the POD vs vehicle was above 100 µM in test [13]; above 100 µM in test [14]; 36.5 µM in test [15]; above 100 µM in test [16]; above 100 µM in test [17]; above 100 µM in [18]. The POD vs vehicle in [19] and in test [20] was above 100 µM in each case.
As for `O=S(=O)(O)CCC(F)(F)C(F)(F)C(F)(F)C(F)(F)C(F)(F)C(F)(F)C(F)(F)C(F)(F)F` [8:2 Fluorotelomer sulfonic acid], the POD vs vehicle in test [1] was above 100 µM; in test [2] it was 0.121 µM; in test [3], 33.9 µM; in [4], above 100 µM; in test [5], above 100 µM; in [6], 12.8 µM. For the same molecule, the POD vs vehicle in test [7] came to 6.6 µM; in test [8] it was 65.7 µM; in test [9], 1.06 µM; in [10], 60.9 µM; in [11] it was 9.96 µM; in test [12] it was 34.5 µM. The POD vs vehicle is 0.768 µM in test [13]; 15.3 µM in [14]; 6.39 µM in test [15]; above 100 µM in test [16]; above 100 µM in test [17]; 17.2 µM in test [18]. In addition, the values for the POD vs vehicle in [19] and in [20] were above 100 µM and 20.1 µM, respectively.
With `OCC(F)(F)OC(F)(F)C(F)(F)OC(F)(F)C(F)(F)OC(F)(F)F` [Fluorinated_triethylene_glycol_monomethyl_ether], the POD vs vehicle in test [1] was above 100 µM; in test [2], above 100 µM; in test [3] it was above 100 µM; in [4] it was above 100 µM; in [5] it was above 100 µM; in test [6], 25.3 µM. Further, the POD vs vehicle in test [7], in [8], in [9], in [10], in test [11] and in [12] was above 100 µM in each case. In addition, the POD vs vehicle in test [13], in test [14], in test [15], in [16], in test [17] and in [18] was above 100 µM throughout. In addition, the POD vs vehicle in test [19] and in [20] was above 100 µM in each case.
